Source: a melting point compilation (Tetko et al.; mined from patent text by program, amines drawn as free bases though some values may be those of a salt)

Row | Compound | melting point [°C]
1 | CNC(=S)N(Cc1cccnc1)N(C)C | 101 to 102
2 | O=C(O)C1(O)CCc2ccccc2C1 (single isomer, unassigned; (-)) | 134 to 135
3 | Cc1ccc2c(c1)CCCN2CC(NS(=O)(=O)c1c(Cl)cc(Cl)cc1Cl)C(C)C (stereo not drawn) | 144 to 145
4 | CC(=O)NC[C@H]1CN(c2ccc(N3CCN(CCCO)CC3)c(F)c2)C(=O)O1 | 154 to 156
5 | ClCc1ccc(-c2ccccc2)nc1 | 95 to 96
6 | CCCCn1c(=O)c2c(NC)n[nH]c2n(Cc2ccc([N+](=O)[O-])cc2)c1=O | 277 to 279
7 | CCOC(=O)c1ccc(-n2nc(-c3ccccc3O)nc2-c2ccccc2O)cc1 | 148 to 149
8 | c1ccc(-c2nnc3cc(-c4cccnc4)c(OCc4ccccn4)nn23)cc1 | 206
9 | CN1CCCCC1CCc1ccccc1NC(=O)c1ccc([N+](=O)[O-])cc1 (stereo not drawn) | 162 to 164
10 | OC(=S)C=Cc1cccc2ccccc12 | 102 to 103
11 | CCCCCCCCCCCCCCc1ccc(S(=O)(=O)Cl)cc1 | 32 to 33
12 | CC(c1oc2ccccc2c(=O)c1-c1ccccc1)n1ncc2c(N)ncnc21 (stereo not drawn) | 226 to 227
13 | Cc1cnc(-c2ssc(=S)c2C)cn1 | 162 to 163
14 | Clc1ccc(C23CCN(CC2)C3)cn1 | 70 to 72
15 | Cc1cccc(NC(=O)NCC(=O)N(CC(=O)N2CCCC2)c2ccccc2)c1 | 206
16 | O=c1c2ccccc2sn1CCN1CC=C(c2ccccc2)CC1 | 90 to 92
17 | O=C(Cl)c1csc(=O)[nH]1 | 184
18 | C#Cc1ncn2c(C(F)(F)F)cc(-c3ccc(C(F)(F)F)cc3)nc12 | 163
19 | O=C(CN1CCCC1=O)NCC(=O)Nc1ccncc1 | 243 to 245
20 | COc1ccc(-n2nc(Sc3ccc(C)cc3)c(C)c(C#N)c2=O)cc1 | 148 to 149
21 | COc1cc(Cc2cnc(N)nc2N)cc(OC)c1-n1cccc1 | 220
22 | OCc1ccc(C2=NOC(c3cc(Cl)cc(Cl)c3)(C(F)(F)F)C2)cc1Cl (stereo not drawn) | 32 to 35
23 | O=C(c1cccnc1)c1cccs1 | 90 to 91.5

Row | Compound | melting point [°C]
24 | O=C(OCCN1CCOC1=O)c1ccccc1Nc1ccnc2c(C(F)(F)F)cccc12 | 158 to 160
25 | CC(=O)c1c(O)cccc1OCC(O)COc1c(C)cccc1C (stereo not drawn) | 88 to 90
26 | ON=C1c2ccccc2-c2c1c(N1CCN(c3ccccn3)CC1)nc1ccc(Br)cc21 | 235 to 237
27 | Nc1cccc(C(=O)O)c1S(=O)(=O)CCO | 75 to 77
28 | CC1=CC(C)(C)Cc2c1nc(C(C)C)c(C(C)O)c2-c1ccc(F)cc1 (stereo not drawn) | 117 to 119
29 | O=C(C=CC1CCCCC1)NCCc1cccc(OCc2ccccc2)c1 | 98 to 100
30 | COc1cc(Cc2cnc(N)nc2N)cc2c1OC(C)(C)C=C2c1cccs1 | > 260
31 | CCCn1nc(-c2ccc(OC)cc2)c2cccc(-c3ccccc3)c21 | 58 to 59
32 | CC1=Nc2ccccc2N(Cc2ccccc2)C(=O)C1 | 111 to 113
33 | CC(C)(C)c1nc(CN2C(=O)C3(COc4cc5c(cc43)OCO5)c3ccccc32)no1 (stereo not drawn) | 183 to 185
34 | N=C(NCc1cccc(F)c1)N[N+](=O)[O-] | 177 to 179
35 | Cc1sc2c(c1C)C(c1ccc(Cl)cc1)=NC(CC(=O)O)c1nnc(C)n1-2 (stereo not drawn) | 166 to 177
36 | CC(C)c1nc(COC(N)=O)n(Cc2cnc3ccccc3c2)c1Sc1cc(Cl)cc(Cl)c1 | 214 to 216
37 | O=C(O)Cc1ccc(C2CCCC(=O)C2)cc1 (stereo not drawn) | 96
38 | COc1ccc(C[C@@H](CO)NC(=O)c2cccnc2Br)cc1OC | 136 to 138
39 | COc1ccc2c(c1)C(=O)C(=O)C1=C2OC2(CCN(Cc3ccc(F)cc3)CC2)CS1 | 219 to 221
40 | COC(=O)C(Oc1ccc(C(=O)CN2CCN(c3ccncc3)CC2)cc1)C(=O)OC | 115 to 116
41 | O=C(Cc1ccc2c(c1)OCO2)Nc1cc(C2CC2)n[nH]1 | 174 to 176
42 | O=C1NC(=O)C2(N1)C(=O)N(Cc1ccc(Cl)c(Cl)c1)c1ccccc12 (stereo not drawn) | 269 to 271
43 | CC(C)COC(=O)c1ccc2nc(N)n(S(=O)(=O)N(C)C)c2c1 | 197 to 198
44 | COC(=O)[C@@H]1CSCN1C(=O)/C=C\Sc1ccccc1 | 126 to 128
45 | Clc1ccc(-c2onc3c(CBr)cccc23)cc1 | 153 to 155

Next, values leading:

Row | melting point [°C] | Compound
46 | 75 to 80 | COC(=O)c1ccccc1/C=C/CO
47 | 202 to 204 | Cc1cc(C2c3cc4c(cc3CC(C)NN2C(=O)NC(C)c2ccccc2)OCO4)ccc1[N+](=O)[O-] (stereo not drawn)
48 | 268 to 270 | CCn1cc(C(=O)Nc2ccccc2)c(=O)n2c3ccccc3nc12
49 | 133 to 135 | CN(C)CCNc1ccc(NCCN(C)C)c2c1C(=O)c1ccc(O)c(O)c1C2=O
50 | 99 to 102 | CN(C)Cc1ccc2oc(-c3ccc(O)cc3)cc(=O)c2c1
51 | 220 to 222 | C[C@]12CCC(=O)N[C@@H]1CCc1cc(Sc3ccc4ccccc4n3)ccc12
52 | 120 to 121 | CCOC(=O)c1ccccc1OCNC(=O)CCCCCNC(=O)OC(C)(C)C
53 | 131 to 135 | OCc1cncn1Cc1ccccc1
54 | 63 to 66 | COc1cc2c(cc1Nc1ncc(Cl)c(N[C@@H]3CCCC[C@H]3NS(C)(=O)=O)n1)N(C)CCN(C[C@@H](O)C(F)(F)F)C2
55 | 113 to 118 | CSC1=NC=C(I)C(c2nnn(C)n2)(C(F)(F)F)N1 (stereo not drawn)
56 | 128 to 131 | CCCCCCCCC1C=CC(/C=C/c2ccc(C(=O)O)o2)=C2N=C3CCCCC3=C21 (stereo not drawn)
57 | 74 to 76 | Cc1ccc(CSCc2ccc(C)cc2)cc1
58 | 159 to 162 | CCC(OCCc1c2c3c(c(OCc4ccc(-c5ccccc5)cn4)ccc3n1Cc1ccc(Cl)cc1)SC(C)C2)C(=O)O (stereo not drawn)
59 | 234 to 236 | c1ccc(Nc2ncnc3[nH]ccc23)cc1
60 | 251 to 253 | COc1ccc2[nH]c3c([N+](=O)[O-])ccc(Cl)c3c(=O)c2c1Cl
61 | 217 to 219 | Fc1ccc2c(CN3CCN(c4ccc(Cl)cc4)CC3)n[nH]c2c1
62 | 151 to 152 | CC(C)c1ccc2c(c1)OC1(O)c3ccccc3C(=O)C21N (stereo not drawn)
63 | 295 to 298 | COc1cccc2cc3c(c(-c4ccc5c(c4)OCO5)c12)CNC3=O
64 | 108 to 110 | Cc1ccccc1-c1cc(-c2ccc(F)cc2)c(C=C(Br)Br)c(C(C)C)n1
65 | 82 to 83 | CN1C(=O)C(c2ccc[nH]2)=C(c2cn(C(=O)OC(C)(C)C)c3ccccc23)C1=O

Row | melting point [°C] | Compound
66 | 97 to 98 | CC(C)(C)OC(=O)N1CCC2(CC1)CC(=O)N(OCCO)C2=O
67 | 104 | CCOC(=O)c1cc(OC(C)=O)c2cc(OC)ccc2c1
68 | 256 to 258 | COc1cc2nc(N)nc(-c3cccc(O)c3)c2cc1OC
69 | 131 to 132 | CCOC(=O)C1(c2ccc(Cl)cc2)OCC2(CO1)c1ccccc1Oc1ccccc12
70 | 99 to 101 | CC(=O)N(C)CC(=O)c1ccc2c(c1)OCO2
71 | 223 to 224 | NC1C(=O)Nc2ccccc2SC1Cc1ccccc1 (stereo not drawn)
72 | 57 to 59 | CCOC(=O)Cc1sc(Sc2cc(C(F)(F)F)ccn2)nc1C
73 | 110 to 111 | N#Cc1cc(Cl)cc(CO)c1
74 | 119 to 120 | COc1ccc(-c2cc(=O)n(CCc3ccc(Cl)cc3Cl)nc2-c2ccc(OC)cc2)cc1
75 | 79 to 81 | OC[C@H](O)CSc1ccccc1
76 | 124 to 125 | CCCCCCOc1ccc(Nc2cc(Nc3ccc4c(c3)OCCO4)ncc2F)cc1
77 | 195 to 197 | CCOC(=O)C1Cc2c([nH]c3ccccc23)CN1C(=S)SCc1ccc(Cl)cc1 (stereo not drawn)
78 | 96 to 97 | CSCC(=O)[C@H](CC(C)C)NC(=O)[C@H](CC(C)C)NC(=O)OCc1ccccc1
79 | 278 to 280 | CC(=O)Nc1cc(F)cc2c1OCCC21SC(=O)NC1=O (stereo not drawn)
80 | 190 to 196 | Oc1ccc(C2N(c3ccccc3)CCN2c2ccccc2)c2cccnc12
81 | 89.5 to 90 | CC1C(=O)OC2COCC21 (stereo not drawn)
82 | 130 to 131 | COc1ccc(CCc2oc3ccc(C#N)cc3c2C(C)=O)cc1
83 | 87 to 88 | COc1ccc(CN2CCCc3cc(OCc4ccccc4)c(OC)cc3C2)cc1
84 | 128 to 129 | CCn1c(=O)c(Oc2ccc(F)cc2F)cc2cnc(S(C)(=O)=O)nc21
85 | 129 to 130 | CN(C)c1ccc(-c2cc(F)c(F)cc2-c2ccc(S(C)(=O)=O)cc2)cc1Cl

Row | melting point [°C] | Compound
86 | 191 to 192 | CC1CC(=O)NN=C1c1ccc(-n2ccc(C=O)c2)cc1 (stereo not drawn)
87 | 305 to 308 | Fc1ccc2c(c1)nc(Cl)c1nncn12
88 | 124 to 126 | CCOC(=O)N[C@@H]1CCc2ccccc2[C@H]1Cl (relative stereo)
89 | 188 to 190 | Cc1ccccc1CC(=O)Nc1cc(C)c(S(=O)(=O)C[N+](=O)[O-])c(C)c1
90 | 129 | Clc1ccc(-c2nnco2)cc1
91 | 106 to 107 | CCOC(=O)CNC(=O)CCCCCNC(=O)c1ccc(OC)cc1
92 | 151 to 153 | COC(=O)C1CCNC(=O)C1=O (stereo not drawn)
93 | 102 | COc1cc(F)ccc1-c1ccc(S(=O)(=O)N2c3ccccc3CC2C(=O)NCCOc2ccc(C(=O)O)cc2)cc1 (stereo not drawn)
94 | 119 to 120 | CC(=O)CNC1(c2ccc(OCCCN(C)C3CCCCC3)cc2)Sc2ccccc2N(C)C1=O (stereo not drawn)
95 | 178 | CCOC(=O)c1nc(N)nc(N)c1-c1ccc(Cl)cc1Cl
96 | 93 to 95 | O=C(NCCCCCn1cncn1)c1ccc(Br)cc1
97 | 130 to 131 | COc1cc2c(c3c1OC1(CCCC1)C3)C(c1ccccc1)=NC(C)(C)C2
98 | 140 to 143 | N#CCC(CC#N)c1cccc(OCc2ccccc2)c1
99 | 205 | COc1ccc2oc(C(N)=O)c(-c3nnn[nH]3)c2c1
100 | 41 to 43 | CCOC(=O)COC1CC(C)(C)N(O)C(C)(C)C1
101 | 148 to 150 | CCOC(=O)Cc1csc(Nc2ccc(Cl)c(C(F)(F)F)c2)n1
102 | 134 to 136 | COC(=O)c1ccc(-c2ccc(-c3ccccc3)c(-c3ccc4c(c3)C(C)(C)CCC4(C)C)c2)cc1O
103 | 147 | CCNC1c2cc(S(N)(=O)=O)oc2SCC1(C)C (stereo not drawn)
